# Test results from patent publication US8916543B1 (priority 2009, dated 2014).
# Entries after “also recorded” stand apart in the source; their conditions may differ.
# Assays:
# α-toxin heptamer = α-toxin heptamer (Staphylococcus aureus, UniProt P09616); settings: literature; cited from earlier work
# α-toxin [1] = molecular target: T1, α-toxin (Staphylococcus aureus, UniProt P09616); format: cell-based
# S. aureus strain 60171 = experiment: Experimental keratitis in rabbits, S. aureus clinical isolate 60171, topical treatment; format: in vivo, Staphylococcus aureus; settings: rabbit eyes
# Experimental: FIG. 5 is a set of graphs that show the effect of CD-cholesterol treatment of eyes infected with strain 60171. Eyes were treated and evaluated as described for FIG. 3. Error bars are the SEM. […] In contrast, the CD-treated eyes had similar SLE scores compared to the PBS-treated eyes (P=0.7403). […] There was no statistical difference between the eyes treated with 1% CD and the eyes treated with PBS (P=0.2131).
# (§1) Rabbits (n≧4 eyes per group) were infected as previously described, injecting approximately 100 colony forming units (CFU) of strain 8325-4 or strain 60171, a clinical isolate, in 10 μL of TSB into the stroma of the cornea. Accuracy of the inoculum size was verified by plating aliquots (100 μL) of serial dilutions in triplicate on TSA.
# (§2) At 7 hours postinfection (PI), treatment began and consisted of a single topical drop of PBS, 1% CD, or 1% CD-cholesterol every 15 minutes from 7 to 8 hours PI. Then, beginning at 8.5 hours PI, a single drop was administered every 30 minutes until 13 hours PI; a total of 15 drops per eye. At 13 hours PI, corneal erosions were measured and all eyes underwent slit lamp examination (SLE) to quantify pathologic changes.
# SLE of pathologic changes of rabbit eyes was performed by two masked observers as described previously.
# Corneas of rabbits infected with either S. aureus 8325-4 or 60171 were harvested at 14 hours PI and bacteria were quantified as described previously.
# These finding raised the possibility that CD-cholesterol could treat corneas infected with S. aureus. Rabbit corneas were injected with either S. aureus strain 8325-4 or S. aureus clinical isolate 60171. Rabbit eyes were treated from 7 to 13 hours PI with PBS, 1% CD, or 1% CD-cholesterol. […]
# Strain 60171, an ocular clinical isolate, was injected into the corneas of rabbits to determine the effectiveness of treatments with CD-cholesterol, CD, or PBS. As described above, the pathologic changes and erosion development were observed via SLE at 13 hours PI (FIG. 2B) whereas the number of surviving bacteria was determined at 14 hours PI.
# S. aureus strain 8325-4 = experiment: Experimental keratitis in rabbits, S. aureus strain 8325-4, topical treatment; format: in vivo, Staphylococcus aureus; settings: rabbit eyes
# Experimental: FIG. 4 is a set of graphs that show the effect of CD-cholesterol treatment of eyes infected with strain 8325-4. Rabbit corneas were injected with 10^2 CFU of S. aureus 8325-4. Eyes were randomized and treated with 1% CD-cholesterol, 1% CD, or PBS from 7 to 13 hours PI. At 7 hours PI, eyes were treated with a single topical drop every 15 minutes from 7 to 8 hours PI. At 8.5 hours PI, eyes were treated with a single topical drop every 30 minutes until 13 hours PI (a total of 15 drops). At 13 hours PI, the eyes were evaluated by SLE (A) and erosion diameters were measured using fluorescein strips (B) The pathologic changes were observed then averaged and statistical comparisons were performed using one-way ANOVA. The erosions were averaged and statistical comparisons using analysis of variance and Student's t-test were performed. Error bars are the standard error of the mean (SEM). P≦0.05, for either test, was considered significant. […] The eyes treated with 1% CD or with PBS had statistically similar SLE scores (P=0.4002). […] The eyes treated with 1% CD-cholesterol or 1% CD had erosion diameters similar to one another (P=0.4002).
# as §1
# as §2, with “changes. […]” for “changes.”
# Corneas of rabbits infected with either S. aureus 8325-4 or 60171 were harvested at 14 hours PI and bacteria were quantified as described previously. […]
# α-toxin [2] = molecular target: T1, α-toxin; settings: cited from earlier work
# [3] = 1% topical drops 7 to 13 hours PI (15 drops), 13 hours PI
# [4] = 1% topical drops 7 to 13 hours PI, 13 hours PI
# [5] = 1% topical drops 7 to 13 hours PI, 14 hours PI
# T1 sequence (P09616 27-319 limits assumed): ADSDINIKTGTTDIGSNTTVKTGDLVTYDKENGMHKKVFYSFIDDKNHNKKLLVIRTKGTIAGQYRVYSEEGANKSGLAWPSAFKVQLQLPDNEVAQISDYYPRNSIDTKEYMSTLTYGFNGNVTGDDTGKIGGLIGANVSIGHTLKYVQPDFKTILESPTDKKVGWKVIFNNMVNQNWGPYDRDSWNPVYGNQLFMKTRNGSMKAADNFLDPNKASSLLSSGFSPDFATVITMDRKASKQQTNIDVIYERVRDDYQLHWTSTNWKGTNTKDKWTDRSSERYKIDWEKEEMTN
# Sequence of α-toxin heptamer (P09616 27-319 limits assumed): as above
Molecule,binding to the pore of α-toxin heptamer (α-toxin heptamer),reduction in α-toxin hemolytic titer (α-toxin [1]),average SLE score (S. aureus strain 60171; [3]),diameter of corneal epithelial erosions (S. aureus strain 60171; [4]) [mm],bacteria in the corneas (S. aureus strain 60171; [5]),average SLE score (S. aureus strain 8325-4; [3]),corneal erosion diameter (S. aureus strain 8325-4; [4]) [mm],number of surviving S. aureus (S. aureus strain 8325-4; [5]),inhibition of α-toxin activity (α-toxin [2])
methyl-β-cyclodextrin [CD],bind weakly,twofold; also recorded: two-fold,9.02±0.90,4.83±0.31,2.42×10^7±8.96×10^6 bacteria,9.23±0.39,4.55±0.28,9.36×10^6±4.22×10^5 bacteria per cornea,
C[C@]12CCC(=O)C=C1CC[C@@H]1[C@@H]2[C@@H](O)C[C@@]2(C)[C@H]1CC[C@]2(O)C(=O)CO [hydrocortisone],,,,,,,,,weakly inhibited
